These are literature values, as cited in US20190000794A1, “TRANSMUCOSAL CANNABINOID FORMULATION INCLUDING A CHITOSAN EXCIPEINT” (priority 2017, published 2019).

The conditions of the series: oral consumption; first pass metabolism in the liver.

Regarding `CCCCCc1cc(O)c2c(c1)OC(C)(C)[C@@H]1CCC(C)=C[C@@H]21` [THC, trans-Δ^9-tetrahydrocannabinol], the “fraction of THC consumed orally that is metabolized through first pass metabolism” value was “up to 97%”.
